According to article PMC10767194 (The Journal of Biological Chemistry, 2023):
Like-named read-outs stand apart in the source and are kept apart here.

Columns and labels:
Cdk9/CycT1 = molecular target: T1, Cdk9/CycT1 (Homo sapiens, UniProt P50750); assay: radioactive in vitro kinase assay, Cdk9/CycT1; format: biochemical; settings: 0, 0.1, 1, 10, 100 μM compound, 0.2 μM kinase, 0.2 mM ATP
T1 construct: Full-length, human, WT Cdk9 (residues 1–372, UniProt P50750); made in house; host or cells: Cdk9: Sf9 insect cells; CycT1: E. coli
T1 sequence (P50750 whole entry, the tested form may be a part): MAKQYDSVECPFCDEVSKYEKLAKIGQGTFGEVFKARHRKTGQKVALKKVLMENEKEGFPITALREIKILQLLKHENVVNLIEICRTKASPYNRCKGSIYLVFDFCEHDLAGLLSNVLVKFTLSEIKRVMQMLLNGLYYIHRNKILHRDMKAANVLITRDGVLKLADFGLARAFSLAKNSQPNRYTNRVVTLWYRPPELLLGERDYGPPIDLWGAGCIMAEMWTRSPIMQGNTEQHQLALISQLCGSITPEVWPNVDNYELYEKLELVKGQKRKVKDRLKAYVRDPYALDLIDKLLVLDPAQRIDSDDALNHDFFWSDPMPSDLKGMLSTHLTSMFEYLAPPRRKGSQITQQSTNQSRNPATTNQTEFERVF
T1 sequence (O60563 1-272 partner limits assumed): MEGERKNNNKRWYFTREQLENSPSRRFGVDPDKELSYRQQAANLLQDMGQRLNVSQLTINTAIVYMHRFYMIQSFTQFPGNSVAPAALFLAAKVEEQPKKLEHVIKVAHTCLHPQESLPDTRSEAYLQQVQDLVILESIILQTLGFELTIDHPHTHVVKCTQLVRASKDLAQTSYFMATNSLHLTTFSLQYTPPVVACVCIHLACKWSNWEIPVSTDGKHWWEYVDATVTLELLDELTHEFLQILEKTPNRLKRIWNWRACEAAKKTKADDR
Description: (§1) Radioactive kinase activity assays were performed in a total volume of 15 μl per sample in kinase assay buffer (50 mM Hepes/pH 7.6, 34 mM KCl, 7 mM MgCl2, 5 mM β-glycerol phosphate, and 2.5 mM dithioerythritol). Preincubation of 0.2 μM or 0.02 μM recombinant protein kinase with indicated concentrations of respective inhibitor and 0.2 to 2 mM ATP containing 0.45 mCi [^32P]-γ-ATP/ml (PerkinElmer) was carried out for 5 min. Kinase reactions were started by addition of substrate protein (10 μM GST-Rb1 for Cdk4/CycD3, 10 μM GST-CTD[52] for Cdk7/CycH/MAT1, 50 μM His-c-Myc for all others) and incubated for 20 min at 30 °C in a shaking incubator at 300 rpm. For pS7-CTD[3] peptide, the substrate concentration was increased to 100 μM and assays were performed for 60 min. Reactions were terminated by the addition of EDTA to a final concentration of 50 mM. […] Radioactive counts were determined in a Beckman Liquid Scintillation Counter (Beckman Coulter) for 1 min. […] IC50 values were extracted from triplicate measurements by sigmoidal curve fitting using DataGraph (v. 5.0; https://www.visualdatatools.com/DataGraph/) or were determined by applying the Morrison quadratic equation for tight binding inhibitors using GraphPad Prism 10 (https://www.graphpad.com/) ([40]).

Cdk7/CycH = test system: T2, Cdk7/CycH; assay: radioactive in vitro kinase assay, Cdk7/CycH; format: biochemical, human; settings: 0, 0.1, 1, 10, 100 μM compound, 0.2 μM kinase, 0.2 mM ATP
T2 construct: Full-length, human, WT Cdk7 (residues 1–346, UniProt P50613); made in house; host or cells: Sf9 insect cells
Description: as §1

Cdk12/CycK = molecular target: T3, Cdk12/CycK (Homo sapiens, UniProt Q9NYV4); assay: radioactive in vitro kinase assay, Cdk12/CycK; format: biochemical; settings: 0, 0.1, 1, 10, 100 μM compound, 0.2 μM Cdk12, 0.2 mM ATP, His-c-Myc, 20 min
T3 construct: GST (TEV site) (N, cleaved yes); made in house; host or cells: Sf9 insect cells, co-expressed with S. cerevisiae CAK1
T3 sequence (Q9NYV4 714-1063): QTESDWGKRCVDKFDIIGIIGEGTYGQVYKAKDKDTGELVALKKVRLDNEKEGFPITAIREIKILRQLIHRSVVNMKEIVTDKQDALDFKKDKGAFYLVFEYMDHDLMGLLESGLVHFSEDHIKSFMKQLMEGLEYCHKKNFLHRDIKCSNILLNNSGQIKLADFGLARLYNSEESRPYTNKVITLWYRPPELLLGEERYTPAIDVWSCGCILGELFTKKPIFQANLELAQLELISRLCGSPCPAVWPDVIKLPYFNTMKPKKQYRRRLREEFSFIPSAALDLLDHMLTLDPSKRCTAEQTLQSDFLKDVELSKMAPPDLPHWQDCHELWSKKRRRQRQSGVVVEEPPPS
T3 sequence (O75909 1-267 partner limits assumed): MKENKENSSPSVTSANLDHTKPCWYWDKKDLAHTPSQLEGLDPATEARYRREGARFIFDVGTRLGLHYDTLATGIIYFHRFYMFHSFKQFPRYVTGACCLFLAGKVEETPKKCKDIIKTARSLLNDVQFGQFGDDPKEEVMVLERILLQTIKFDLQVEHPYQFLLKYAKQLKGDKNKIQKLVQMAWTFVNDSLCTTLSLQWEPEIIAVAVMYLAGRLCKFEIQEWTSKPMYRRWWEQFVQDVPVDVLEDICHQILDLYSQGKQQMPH
Description: (§2) To a concentration of 0.2 μM kinase and 0.2 mM ATP, a compound concentration ranging from 0.1 nM to 1 mM was applied. Kinase reactions were started by the addition of 100 μM CTD peptide containing three hepta-repeats continuously prephosphorylated at position S7 (pS7-CTD[3]) and terminated after 60 min incubation time. In vitro IC50-values were determined by applying a sigmoidal fit to dose-response measurements (Fig. 1A).
Cdk12 kinase (0.2 μM) in the presence of 0.2 mM ATP were supplemented with respective compounds at concentrations of 0, 0.1, 1, 10, and 100 μM for 5 min. Upon addition of 50 μM His-c-Myc substrate the kinase assay reaction was conducted for 20 min.
Radioactive kinase activity assays were performed in a total volume of 15 μl per sample in kinase assay buffer (50 mM Hepes/pH 7.6, 34 mM KCl, 7 mM MgCl2, 5 mM β-glycerol phosphate, and 2.5 mM dithioerythritol). Preincubation of 0.2 μM or 0.02 μM recombinant protein kinase with indicated concentrations of respective inhibitor and 0.2 to 2 mM ATP containing 0.45 mCi [^32P]-γ-ATP/ml (PerkinElmer) was carried out for 5 min. Kinase reactions were started by addition of substrate protein (10 μM GST-Rb1 for Cdk4/CycD3, 10 μM GST-CTD[52] for Cdk7/CycH/MAT1, 50 μM His-c-Myc for all others) and incubated for 20 min at 30 °C in a shaking incubator at 300 rpm. For pS7-CTD[3] peptide, the substrate concentration was increased to 100 μM and assays were performed for 60 min. Reactions were terminated by the addition of EDTA to a final concentration of 50 mM. Reaction samples were separately spotted onto Amersham Protran nitrocellulose membranes (GE HealthCare) and subsequently washed three times for 5 min in PBS. Samples were transferred to 4 ml liquid scintillation vials and 2 ml liquid scintillator (Ultima Gold) were added. Radioactive counts were determined in a Beckman Liquid Scintillation Counter (Beckman Coulter) for 1 min. […] For analysis of dose response measurements and IC50 value determination, data of inhibitor-supplemented samples were normalized to DMSO solvent controls and their activity plotted against the inhibitor concentration. IC50 values were extracted from triplicate measurements by sigmoidal curve fitting using DataGraph (v. 5.0; https://www.visualdatatools.com/DataGraph/) or were determined by applying the Morrison quadratic equation for tight binding inhibitors using GraphPad Prism 10 (https://www.graphpad.com/) ([40]).

Cdk13/CycK = molecular target: T4, Cdk13/CycK (Homo sapiens, UniProt Q14004); assay: radioactive in vitro kinase assay, Cdk13/CycK; format: biochemical
T4 construct: The kinase domain of human Cdk13 (residues 694–1039, UniProt Q14004); made in house; host or cells: Sf9 insect cells, co-expressed with CAK1
T4 sequence (Q14004 694-1039): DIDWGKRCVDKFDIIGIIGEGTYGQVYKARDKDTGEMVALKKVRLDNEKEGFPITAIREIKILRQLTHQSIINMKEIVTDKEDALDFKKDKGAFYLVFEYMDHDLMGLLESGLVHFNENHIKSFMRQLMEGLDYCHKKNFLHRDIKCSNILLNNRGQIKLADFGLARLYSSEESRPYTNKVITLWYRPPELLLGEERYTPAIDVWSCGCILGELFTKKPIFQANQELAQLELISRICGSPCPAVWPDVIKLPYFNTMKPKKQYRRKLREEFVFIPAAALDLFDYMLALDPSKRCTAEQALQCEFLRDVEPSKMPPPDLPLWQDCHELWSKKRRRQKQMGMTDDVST
T4 sequence (O75909 1-267 partner limits assumed): as the sequence (O75909 1-267 partner limits assumed) above
Description: as §2, with “1A). […] The Michaelis–Menten constants (KM) for ATP were determined as 17.5 μM for Cdk12/CycK and 12.6 μM for Cdk13/CycK, respectively. […] These values are in accordance with the values derived from sigmoidal curve fitting.” for “1A).”
Radioactive kinase activity assays were performed in a total volume of 15 μl per sample in kinase assay buffer (50 mM Hepes/pH 7.6, 34 mM KCl, 7 mM MgCl2, 5 mM β-glycerol phosphate, and 2.5 mM dithioerythritol). […] Radioactive counts were determined in a Beckman Liquid Scintillation Counter (Beckman Coulter) for 1 min. […] IC50 values were extracted from triplicate measurements by sigmoidal curve fitting using DataGraph (v. 5.0; https://www.visualdatatools.com/DataGraph/) or were determined by applying the Morrison quadratic equation for tight binding inhibitors using GraphPad Prism 10 (https://www.graphpad.com/) ([40]).

Cdk10/CycQ = molecular target: T5, Cdk10/CycQ (Homo sapiens, UniProt Q15131); assay: radioactive in vitro kinase assay, Cdk10/CycQ; format: biochemical; settings: 0.2 mM ATP
T5 construct: Full-length, human, WT Cdk10 (residues 1–360, UniProt Q15131); made in house; host or cells: Sf9 insect cells
T5 sequence (Q15131 whole entry, the tested form may be a part): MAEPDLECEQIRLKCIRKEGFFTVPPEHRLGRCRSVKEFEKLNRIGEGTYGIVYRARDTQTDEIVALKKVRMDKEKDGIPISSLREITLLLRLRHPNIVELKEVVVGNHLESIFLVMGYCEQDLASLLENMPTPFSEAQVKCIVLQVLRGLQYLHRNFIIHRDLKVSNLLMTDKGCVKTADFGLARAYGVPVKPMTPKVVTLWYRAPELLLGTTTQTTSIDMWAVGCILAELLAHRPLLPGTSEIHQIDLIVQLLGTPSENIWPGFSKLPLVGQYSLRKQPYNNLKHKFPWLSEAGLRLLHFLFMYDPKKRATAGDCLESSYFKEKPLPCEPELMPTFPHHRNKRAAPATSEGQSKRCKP
T5 sequence (Q8N1B3 whole entry partner, the tested form may be a part): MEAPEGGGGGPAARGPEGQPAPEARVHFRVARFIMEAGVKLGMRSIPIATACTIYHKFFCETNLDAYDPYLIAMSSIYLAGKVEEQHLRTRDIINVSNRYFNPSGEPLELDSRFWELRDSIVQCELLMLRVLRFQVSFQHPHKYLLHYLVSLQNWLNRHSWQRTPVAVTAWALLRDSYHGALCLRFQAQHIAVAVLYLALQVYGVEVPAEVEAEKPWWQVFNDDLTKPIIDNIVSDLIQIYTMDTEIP
Description: as §1

In the case of `Cn1cc(-n2cnc3c(NCc4nc5cc(Cl)c(Cl)cc5[nH]4)nc(N4CCOCC4)nc32)cn1` [SR-4835], the “inhibition of Cdk9 activity” value (Cdk9/CycT1) is reported as “no inhibitory activity”, the “inhibition of Cdk7 activity” value (Cdk7/CycH) is reported as “no inhibitory activity” and the “inhibitory effect on Cdk12/CycK activity, in words” value (Cdk12/CycK) is reported as “modest effects”. For the same compound, the IC50 (Cdk13/CycK; 0.2 μM and 0.02 μM kinase, c-Myc substrate, Morrison quadratic equation fit, read-out: IC50 Cdk13/CycK, Morrison quadratic equation) was 366 to 400 nM, the IC50 (Cdk13/CycK; 0.2 μM kinase, 0.2 mM ATP, 100 μM pS7-CTD[3], 60 min, sigmoidal fit, read-out: IC50 Cdk13/CycK on pS7-CTD[3]) was 366 nM and the “inhibition of Cdk10/CycQ activity” value (Cdk10/CycQ; 0, 0.1, 1, 10, 100 μM compound, 0.2 μM kinase) was “moderate SR-4835 concentration dependent decrease”. For the same compound, the IC50 (Cdk10/CycQ; concentration range 1 nM to 1 mM, sigmoidal fit) was 1070 nM.
